# Patent publication US9803021B2 (The Regents of the University of California, priority 2012, dated 2017)
# Key:
# Type in all cases: cell-based, human
# [1] = tested on: 8226/Dox40; assay: MTS assay (cell viability / metabolic activity); conditions: 8226/Dox40, 3 days
# Method: (§1) Percent cell viability was determined using MTS solution (Promega, Madison, Wis.) by measuring absorbance at 490 nm using a Synergy HT Multi-Detection Microplate Reader (BioTek Instruments, Inc., Winooski, Vt.) with untreated cells being 100%. GraphPad Prism (GraphPad Software Inc., La Jolla, Calif.) was used to analyze data by non-linear regression with the log (inhibitor) vs. the response with a variable slope with the IC50 calculated. Data are expressed as a percentage of maximum metabolic activity. The experiments were performed in triplicate.
# (§2) To determine if the HMCLs were sensitive to treatment with IFNα fusion protein, HMCLs were incubated with varying concentrations of anti-CD138-IFNα, and cell viability was assessed. Anti-CD138-IFNα was used to target IFNα to the MM cell lines while anti-CD20-IFNα was used as an untargeted control. After 3 days of treatment, cell viability was measured by MTS activity. The MM cell lines differed in their response to treatment with the fusion proteins.
# [2] = tested on: Delta 47; assay: MTS assay (cell viability / metabolic activity)
# Method: as §1, §2
# [3] = tested on: OPM-1; assay: MTS assay (cell viability / metabolic activity)
# Method: as §1, §2
# [4] = tested on: S6B45; assay: MTS assay (cell viability / metabolic activity); conditions: S6B45, 3 days
# Method: as §1, §2
# [5] = tested on: XG-1; assay: MTS assay (cell viability / metabolic activity); conditions: XG-1, 3 days
# Method: as §1, §2
# [6] = tested on: XG-2; assay: MTS assay (cell viability / metabolic activity); conditions: XG-2, 3 days
# Method: as §1, §2
# [7] = tested on: OCI-My 5 cells; assay: Cell proliferation assay (3[H]-thymidine incorporation); conditions: OCI-My 5, 0.3 pM-25 nM, 3 days
# Method: The proliferative status of the cells was determined by measuring ^3[H]-thymidine incorporation.
# [8] = tested on: ppRb in MM1-144; assay: Western blot of ppRb; conditions: MM1-144, 1 nM, 48 hours
# Method: (§3) Cells were lysed using RIPA buffer (50 mM Tris HCl pH 8, 150 mM NaCl, 1% NP-40, 0.5% sodium deoxycholate, 0.1% SDS) containing a protease inhibitor cocktail (Roche Applied Science, Indianapolis, Ind.). The cytosolic fractions were reduced with β-mercaptoethanol and separated by SDS-PAGE. Following transfer to nitrocellulose membrane (Whatman, Piscataway, N.J.) and blocking, samples were incubated with the following primary rabbit antibodies: anti-IRF4 (Epitomics, Berlingham, Calif.), anti-glyceraldehyde-3-phosphate dehydrogenase (GAPDH; Sigma), anti-ppRb Ser807/811 (Santa Cruz Biotechnology, Santa Cruz, Calif.), anti-cyclin D (Millipore, Billerica, Mass.), or anti-β tubulin (Abcam, Cambridge, Mass.). Secondary anti-rabbit IgG-HRP (GE Healthcare, Billerica, Mass.) was used and the blots were developed using enhanced chemiluminescence (ECL; Thermo Scientific, Waltham, Mass.).
# (§4) Cells were lysed using RIPA buffer (50 mM Tris-HCl pH 8, 150 mM NaCl, 1% NP-40, 0.5% sodium deoxycholate, 0.1% SDS) containing a protease inhibitor cocktail (Roche Applied Science). The cytosolic fractions were reduced with β-mercaptoethanol and separated by SDS PAGE. Following transfer to nitrocellulose membrane (Whatman) and blocking, samples were incubated with the following primary rabbit antibodies: anti-IRF-4 (Epitomics), anti-glyceraldehyde-3-phosphate dehydrogenase (GAPDH; Sigma), or anti-ppRb Ser807/811 (Santa Cruz Biotechnology). Secondary anti-rabbit IgG-HRP (GE Healthcare) was used and the blots were developed using enhanced chemiluminescence (ECL; Thermo Scientific). Films were imaged using a Multilmage™ Light Cabinet (Alpha Innotech Corp.) and analyzed using NIH Image J. Bands were normalized to a GAPDH loading control and expressed as percentage band intensity of untreated cells.
# [9] = tested on: ppRb in NCI-H929; assay: Western blot of ppRb; conditions: NCI-H929, 1 nM, 48 hours
# Method: as §3, §4
# [10] = tested on: ppRb in OCI-My5; assay: Western blot of ppRb; conditions: OCI-My5, 1 nM, 48 hours
# Method: as §3, §4
substance,measurement,setting,value
"anti-CD138-IFNα: Fusion protein: murine B-B4 anti-CD138 variable regions, human IgG1κ constant regions, human IFNα2 fused to the antibody C-terminus via SGGGGS linker","cell viability (MTS assay), result in words",[1],intermediate effect
same,"cell viability (MTS assay), result in words",[1]; listed as Anti-CD138-IFNα2,some effect was observed only at high concentrations
same,"cell viability (MTS assay), result in words","[2]; Delta 47, 3 days",little or no effect
same,"cell viability (MTS assay), result in words","[2]; Delta 47, treatment increased to 4 days (data not shown)",decrease in viability
same,"cell viability (MTS assay), result in words","[3]; OPM-1, 3 days",little or no effect
same,"cell viability (MTS assay), result in words","[3]; OPM-1, treatment increased to 4 days (data not shown)",decrease in viability
same,"cell viability (MTS assay), result in words",[4],intermediate effect
same,"cell viability (MTS assay), result in words",[4]; listed as Anti-CD138-IFNα2,some effect was observed only at high concentrations
same,"cell viability (MTS assay), result in words",[5],little or no effect
same,"cell viability (MTS assay), result in words",[6],little or no effect
same,"proliferation (3[H]-thymidine incorporation), result in words",[7],greater effect than IFNα alone
same,ppRb levels (Western blot),[8],decreased
same,ppRb levels (Western blot),[9],decreased
same,ppRb levels (Western blot),[10],decreased
